# Starred links: 1 amine or outer side, 2 acyl side, 3 side chain; linkers in the order of their positions; H or OH if unused. Positions of bridges follow the written chain, without caps; N, C: chain ends. Residues, ends and D or L forms follow the SMILES beside them. *: point of attachment. C18 diacid = O=C(O)CCCCCCCCCCCCCCCCC(=O)*; γGlu = O=C(O)[C@H](CCC(=O)[*:2])N[*:1]; AEEA = NCCOCCOCC(=O)O
# Target: T1, human natriuretic peptide receptor 2 (hNPR2) (Homo sapiens, UniProt P20594)
# T1 construct: expressed in transfected cells; host or cells: HEK293 (ATCC CRL-1573), clone 35, co-transfected with pGloSensor-42F
# T1 sequence (P20594 23-1047): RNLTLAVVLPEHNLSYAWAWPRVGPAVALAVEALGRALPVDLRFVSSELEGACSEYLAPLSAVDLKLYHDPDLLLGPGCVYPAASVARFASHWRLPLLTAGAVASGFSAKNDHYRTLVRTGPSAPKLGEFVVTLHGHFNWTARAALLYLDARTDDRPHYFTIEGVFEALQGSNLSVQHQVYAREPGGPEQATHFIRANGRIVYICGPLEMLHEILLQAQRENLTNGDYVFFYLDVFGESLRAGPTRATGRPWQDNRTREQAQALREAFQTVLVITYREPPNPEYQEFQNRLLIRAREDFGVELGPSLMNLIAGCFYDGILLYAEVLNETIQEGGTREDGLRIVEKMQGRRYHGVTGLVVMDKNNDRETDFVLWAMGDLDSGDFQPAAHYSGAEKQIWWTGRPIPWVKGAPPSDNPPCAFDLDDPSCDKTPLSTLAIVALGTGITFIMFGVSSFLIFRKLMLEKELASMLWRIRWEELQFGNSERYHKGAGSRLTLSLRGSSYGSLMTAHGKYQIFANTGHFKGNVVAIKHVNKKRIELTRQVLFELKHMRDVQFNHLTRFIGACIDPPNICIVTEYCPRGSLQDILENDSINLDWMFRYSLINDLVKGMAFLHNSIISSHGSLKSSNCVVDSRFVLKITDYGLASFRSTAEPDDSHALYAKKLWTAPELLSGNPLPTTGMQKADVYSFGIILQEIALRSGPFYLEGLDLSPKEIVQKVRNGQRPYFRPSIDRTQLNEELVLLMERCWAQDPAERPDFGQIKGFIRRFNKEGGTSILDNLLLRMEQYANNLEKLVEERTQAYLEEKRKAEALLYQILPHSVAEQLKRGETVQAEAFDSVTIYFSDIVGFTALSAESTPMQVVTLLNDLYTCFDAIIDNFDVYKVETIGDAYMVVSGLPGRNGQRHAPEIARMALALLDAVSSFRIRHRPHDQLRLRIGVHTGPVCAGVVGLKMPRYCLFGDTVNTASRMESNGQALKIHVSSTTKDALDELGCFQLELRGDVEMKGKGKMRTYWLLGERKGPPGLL
# Test: In vitro hNPR2 activity assay (cGMP GloSensor reporter, HEK293)
# Type: cell-based
# Conditions: potency relative to CNP22 (0065)
# Outline: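 Potency is the EC50 from a four-parameter logistic fit, also expressed relative to the in-plate CNP22 control (×100), with at least two replicates. Compounds (ten concentrations, […], HSA-free diluent with 1% OVA, 0.01% Tween20) were incubated 30 min at 37 °C on HEK293 cells co-expressing hNPR2 and a GloSensor cGMP luciferase. Luminescence detected with Bright-Glo.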
row,SMILES,hNPR2 0% HSA. [EC50% rel CNP] [%]
1,CC[C@H](C)[C@@H]1NC(=O)[C@H](CCCNC(=N)N)NC(=O)[C@H](CC(=O)O)NC(=O)[C@H](CC(C)C)NC(=O)[C@@H]2CCCN2C(=O)[C@H](CC(C)C)NC(=O)CNC(=O)[C@H](Cc2ccccc2)NC(=O)[C@@H](NC(=O)CNC(=O)[C@H](CCCCN)NC(=O)[C@H](CO)NC(=O)[C@@H](NC(=O)CNC(=O)[C@@H](NC(=O)[C@H](CCCCN)NC(=O)[C@H](CCC(N)=O)NC(=O)[C@H](C)NC(=O)CNC(=O)[C@H](CCCCN)NC(=O)[C@H](Cc2ccc(O)cc2)NC(=O)[C@H](CCCCN)NC(=O)[C@H](CCCNC(=N)N)NC(=O)[C@H](C)NC(=O)COCCOCCNC(=O)COCCOCCNC(=O)CC[C@H](NC(=O)CC[C@H](NC(=O)CC[C@H](NC(=O)CC[C@H](NC(=O)CCCCCCCCCCCCCCCCC(=O)O)C(=O)O)C(=O)O)C(=O)O)C(=O)O)[C@@H](C)O)C(C)C)CSSC[C@@H](C(=O)O)NC(=O)CNC(=O)[C@H](CC(C)C)NC(=O)CNC(=O)[C@H](CO)NC(=O)[C@H](CC(C)C)NC(=O)[C@H](CO)NC(=O)CNC1=O [compound 1424] ({C18 diacid-γGlu-γGlu-γGlu-γGlu-AEEA-AEEA}-ARKYKGAQKTGVSKGCFGLPLDRIGSLSGLGC-OH; disulfide 16-32),36.2
2,CC[C@H](C)[C@@H]1NC(=O)[C@H](CCCNC(=N)N)NC(=O)[C@H](CC(=O)O)NC(=O)[C@H](CC(C)C)NC(=O)[C@@H]2CCCN2C(=O)[C@H](CC(C)C)NC(=O)CNC(=O)[C@H](Cc2ccccc2)NC(=O)[C@@H](NC(=O)CNC(=O)[C@H](CCCCN)NC(=O)[C@H](CO)NC(=O)[C@@H](NC(=O)CNC(=O)[C@@H](NC(=O)[C@H](CCCCN)NC(=O)[C@H](CCC(N)=O)NC(=O)[C@H](C)NC(=O)CNC(=O)[C@H](Cc2c[nH]cn2)NC(=O)[C@H](Cc2ccc(O)cc2)NC(=O)COCCOCCNC(=O)COCCOCCNC(=O)COCCOCCNC(=O)COCCOCCNC(=O)CC[C@H](NC(=O)CC[C@H](NC(=O)CCCCCCCCCCCCCCCCC(=O)O)C(=O)O)C(=O)O)[C@@H](C)O)C(C)C)CSSC[C@@H](C(=O)O)NC(=O)CNC(=O)[C@H](CC(C)C)NC(=O)CNC(=O)[C@H](CO)NC(=O)[C@H](CC(C)C)NC(=O)[C@H](CO)NC(=O)CNC1=O [compound 1425] ({C18 diacid-γGlu-γGlu-AEEA-AEEA-AEEA-AEEA}-YHGAQKTGVSKGCFGLPLDRIGSLSGLGC-OH; disulfide 13-29),26.4
3,CC[C@H](C)[C@@H]1NC(=O)[C@H](CCCNC(=N)N)NC(=O)[C@H](CC(=O)O)NC(=O)[C@H](CC(C)C)NC(=O)[C@@H]2CCCN2C(=O)[C@H](CC(C)C)NC(=O)CNC(=O)[C@H](Cc2ccccc2)NC(=O)[C@@H](NC(=O)CNC(=O)[C@H](Cc2c[nH]cn2)NC(=O)[C@H](CO)NC(=O)CNC(=O)CNC(=O)[C@H](CCCCN)NC(=O)[C@H](CCCCN)NC(=O)[C@H](CCC(N)=O)NC(=O)[C@H](C)NC(=O)CNC(=O)[C@H](CCC(=O)O)NC(=O)[C@H](Cc2ccc(O)cc2)NC(=O)COCCOCCNC(=O)COCCOCCNC(=O)COCCOCCNC(=O)COCCOCCNC(=O)CC[C@H](NC(=O)CCCCCCCCCCCCCCCCC(=O)O)C(=O)O)CSSC[C@@H](C(=O)O)NC(=O)CNC(=O)[C@H](CC(C)C)NC(=O)CNC(=O)[C@H](CO)NC(=O)[C@H](CC(C)C)NC(=O)[C@H](CO)NC(=O)CNC1=O [compound 1431] ({C18 diacid-γGlu-AEEA-AEEA-AEEA-AEEA}-YEGAQKKGGSHGCFGLPLDRIGSLSGLGC-OH; disulfide 13-29; C-terminus assumed),14.3
4,CC[C@H](C)[C@@H]1NC(=O)[C@H](CCCNC(=N)N)NC(=O)[C@H](CC(=O)O)NC(=O)[C@H](CC(C)C)NC(=O)[C@@H]2CCCN2C(=O)[C@H](CC(C)C)NC(=O)CNC(=O)[C@H](Cc2ccccc2)NC(=O)[C@@H](NC(=O)CNC(=O)[C@H](CCC(N)=O)NC(=O)[C@H](CO)NC(=O)[C@@H](NC(=O)CNC(=O)[C@H](CCCCN)NC(=O)[C@H](CCCCN)NC(=O)[C@H](CCC(N)=O)NC(=O)[C@H](C)NC(=O)CNC(=O)[C@H](CCCCN)NC(=O)[C@H](Cc2ccc(O)cc2)NC(=O)COCCOCCNC(=O)COCCOCCNC(=O)COCCOCCNC(=O)COCCOCCNC(=O)CC[C@H](NC(=O)CC[C@H](NC(=O)CCCCCCCCCCCCCCCCC(=O)O)C(=O)O)C(=O)O)C(C)C)CSSC[C@@H](C(=O)O)NC(=O)CNC(=O)[C@H](CC(C)C)NC(=O)CNC(=O)[C@H](CO)NC(=O)[C@H](CC(C)C)NC(=O)[C@H](CO)NC(=O)CNC1=O [compound 1436] ({C18 diacid-γGlu-γGlu-AEEA-AEEA-AEEA-AEEA}-YKGAQKKGVSQGCFGLPLDRIGSLSGLGC-OH; disulfide 13-29; C-terminus assumed),30.2
5,CC[C@H](C)[C@@H]1NC(=O)[C@H](CCCNC(=N)N)NC(=O)[C@H](CC(=O)O)NC(=O)[C@H](CC(C)C)NC(=O)[C@@H]2CCCN2C(=O)[C@H](CC(C)C)NC(=O)CNC(=O)[C@H](Cc2ccccc2)NC(=O)[C@@H](NC(=O)CNC(=O)[C@H](CCC(N)=O)NC(=O)[C@H](CO)NC(=O)[C@@H](NC(=O)CNC(=O)[C@H](CCCCN)NC(=O)[C@H](CCCCN)NC(=O)[C@H](CCC(N)=O)NC(=O)[C@H](C)NC(=O)CNC(=O)[C@H](Cc2c[nH]cn2)NC(=O)[C@H](Cc2ccc(O)cc2)NC(=O)COCCOCCNC(=O)COCCOCCNC(=O)COCCOCCNC(=O)COCCOCCNC(=O)CC[C@H](NC(=O)CC[C@H](NC(=O)CCCCCCCCCCCCCCCCC(=O)O)C(=O)O)C(=O)O)C(C)C)CSSC[C@@H](C(=O)O)NC(=O)CNC(=O)[C@H](CC(C)C)NC(=O)CNC(=O)[C@H](CO)NC(=O)[C@H](CC(C)C)NC(=O)[C@H](CO)NC(=O)CNC1=O [compound 1437] ({C18 diacid-γGlu-γGlu-AEEA-AEEA-AEEA-AEEA}-YHGAQKKGVSQGCFGLPLDRIGSLSGLGC-OH; disulfide 13-29),19.9
6,CC[C@H](C)[C@@H]1NC(=O)[C@H](CCCNC(=N)N)NC(=O)[C@H](CC(=O)O)NC(=O)[C@H](CC(C)C)NC(=O)[C@@H]2CCCN2C(=O)[C@H](CC(C)C)NC(=O)CNC(=O)[C@H](Cc2ccccc2)NC(=O)[C@@H](NC(=O)CNC(=O)[C@H](CCCCN)NC(=O)[C@H](CO)NC(=O)[C@H](CC(C)C)NC(=O)CNC(=O)[C@H](CCCCN)NC(=O)[C@H](CCCCN)NC(=O)[C@H](CCC(N)=O)NC(=O)[C@H](C)NC(=O)CNC(=O)[C@H](CCC(=O)O)NC(=O)[C@H](Cc2ccc(O)cc2)NC(=O)[C@H](CCCCN)NC(=O)[C@H](CCCNC(=N)N)NC(=O)[C@H](C)NC(=O)[C@H](CCC(N)=O)NC(=O)[C@@H]2CCCN2C(=O)[C@H](Cc2c[nH]cn2)NC(=O)[C@H](CCC(=O)O)NC(=O)[C@H](CCC(N)=O)NC(=O)CC[C@H](NC(=O)CC[C@H](NC(=O)CC[C@H](NC(=O)CC[C@H](NC(=O)CCCCCCCCCCCCCCCCC(=O)O)C(=O)O)C(=O)O)C(=O)O)C(=O)O)CSSC[C@@H](C(=O)O)NC(=O)CNC(=O)[C@H](CC(C)C)NC(=O)CNC(=O)[C@H](CO)NC(=O)[C@H](CC(C)C)NC(=O)[C@H](CO)NC(=O)CNC1=O [compound 1448] ({C18 diacid-γGlu-γGlu-γGlu-γGlu}-QEHPQARKYEGAQKKGLSKGCFGLPLDRIGSLSGLGC-OH; disulfide 21-37),33.3
7,CC[C@H](C)[C@@H]1NC(=O)[C@H](CCCNC(=N)N)NC(=O)[C@H](CC(=O)O)NC(=O)[C@H](CC(C)C)NC(=O)[C@@H]2CCCN2C(=O)[C@H](CC(C)C)NC(=O)CNC(=O)[C@H](Cc2ccccc2)NC(=O)[C@@H](NC(=O)CNC(=O)[C@H](CO)NC(=O)[C@H](CO)NC(=O)[C@@H](NC(=O)CNC(=O)[C@@H](NC(=O)[C@H](Cc2c[nH]cn2)NC(=O)[C@H](CCC(N)=O)NC(=O)[C@H](C)NC(=O)CNC(=O)[C@H](Cc2c[nH]cn2)NC(=O)[C@H](Cc2ccc(O)cc2)NC(=O)[C@H](CCCCN)NC(=O)[C@H](CCCNC(=N)N)NC(=O)[C@H](C)NC(=O)COCCOCCNC(=O)COCCOCCNC(=O)CC[C@H](NC(=O)CC[C@H](NC(=O)CC[C@H](NC(=O)CCCCCCCCCCCCCCCCC(=O)O)C(=O)O)C(=O)O)C(=O)O)[C@@H](C)O)C(C)C)CSSC[C@@H](C(=O)O)NC(=O)CNC(=O)[C@H](CC(C)C)NC(=O)CNC(=O)[C@H](CO)NC(=O)[C@H](CC(C)C)NC(=O)[C@H](CO)NC(=O)CNC1=O [compound 1449] ({C18 diacid-γGlu-γGlu-γGlu-AEEA-AEEA}-ARKYHGAQHTGVSSGCFGLPLDRIGSLSGLGC-OH; disulfide 16-32; C-terminus assumed),110.0
